Where “and” joins values, the source holds several entries; their conditions need not be identical. Identical values can stand only once. Inconclusive results and toxic doses are left out. How the source made its calls: active means survival T/C of 150% or more; inactive means T/C below 125% in these data.
Test system: CD2F1 mice, L1210 leukemia ip, survival T/C
Test: NCI In Vivo Anticancer Drug Screen. Data for tumor model L1210 Leukemia (intraperitoneal) in CD2F1 (CDF1) mice
Settings: higher = longer survival
Summary of the method: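 Mice carrying a transplanted tumor received test compound or vehicle alone. The value is the measurement in the treated group divided by that in the vehicle-treated control group.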

[1] = endpoint: mean survival time, dose: 50.0 mg/kg/injection, schedule: Q01DX009 (ip), vehicle: saline with Tween-80
[2] = endpoint: mean survival time, dose: 100.0 mg/kg/injection, schedule: Q01DX009 (ip), vehicle: saline with Tween-80
[3] = endpoint: mean survival time, dose: 200.0 mg/kg/injection, schedule: Q01DX009 (ip), vehicle: saline with Tween-80
[4] = endpoint: mean survival time, dose: 400.0 mg/kg/injection, schedule: Q01DX009 (ip), vehicle: saline with Tween-80
[5] = endpoint: mean survival time, dose: 100.0 mg/kg/injection, schedule: Q04DX002 (ip), vehicle: saline with Tween-80

Measured: T/C

O=C(O)C1CCCCC1C(=O)O.[NH-]C1CCC1.[NH2-].[Pt+2] (configuration not stated)
inactive: endpoint: median survival time, dose: 3.12 mg/kg/injection, schedule: Q04DX003 (ip), vehicle: distilled water + Tween-80 107 % of control | endpoint: median survival time, dose: 6.25 mg/kg/injection, schedule: Q04DX003 (ip), vehicle: distilled water + Tween-80 102 % of control | endpoint: median survival time, dose: 12.5 mg/kg/injection, schedule: Q04DX003 (ip), vehicle: distilled water + Tween-80 106 % of control | endpoint: median survival time, dose: 25.0 mg/kg/injection, schedule: Q04DX003 (ip), vehicle: distilled water + Tween-80 102 % of control | endpoint: median survival time, dose: 50.0 mg/kg/injection, schedule: Q04DX003 (ip), vehicle: distilled water + Tween-80 103 % of control

O=S(=O)(O)CCCl
inactive: [1] 96 % of control | [2] 96 % of control | [3] 96 % of control

Clc1ccc(Br)c2c1CCC2
inactive: endpoint: mean survival time, dose: 100.0 mg/kg/injection, schedule: Q04DX003 (ip), vehicle: acetone 101 % of control | endpoint: mean survival time, dose: 200.0 mg/kg/injection, schedule: Q04DX003 (ip), vehicle: acetone 100 % of control

COc1ccc(C(CC(=O)c2ccccc2)[Se]c2ccccc2)cc1 (configuration not stated)
inactive: endpoint: median survival time, dose: 25.0 mg/kg/injection, schedule: Q01DX009 (ip), vehicle: Klucel (hydroxypropylcellulose) (HPC) 101 % of control | endpoint: median survival time, dose: 50.0 mg/kg/injection, schedule: Q01DX009 (ip), vehicle: Klucel (hydroxypropylcellulose) (HPC) 100 % of control | endpoint: median survival time, dose: 100.0 mg/kg/injection, schedule: Q01DX009 (ip), vehicle: Klucel (hydroxypropylcellulose) (HPC) 101 % of control | endpoint: median survival time, dose: 200.0 mg/kg/injection, schedule: Q01DX009 (ip), vehicle: Klucel (hydroxypropylcellulose) (HPC) 94 % of control

Cc1cc(C)c(C(=O)O)c(C(=O)O)c1
inactive: endpoint: mean survival time, dose: 100.0 mg/kg/injection, schedule: Q01DX001 (ip), vehicle: Klucel (hydroxypropylcellulose) (HPC) 106 % of control | endpoint: mean survival time, dose: 200.0 mg/kg/injection, schedule: Q01DX001 (ip), vehicle: Klucel (hydroxypropylcellulose) (HPC) 95 % of control | endpoint: mean survival time, dose: 400.0 mg/kg/injection, schedule: Q01DX001 (ip), vehicle: Klucel (hydroxypropylcellulose) (HPC) 106 % of control

COC(=O)C1N=C1c1ccccc1.COC(=O)C1N=C1c1ccccc1.[Cl][Pd][Cl] (configuration not stated)
inactive: endpoint: mean survival time, dose: 3.13 mg/kg/injection, schedule: Q04DX003 (ip), vehicle: distilled water + Tween-80 95 % of control | endpoint: mean survival time, dose: 6.25 mg/kg/injection, schedule: Q04DX003 (ip), vehicle: distilled water + Tween-80 103 % of control | endpoint: mean survival time, dose: 12.5 mg/kg/injection, schedule: Q04DX003 (ip), vehicle: distilled water + Tween-80 91 % of control | endpoint: mean survival time, dose: 25.0 mg/kg/injection, schedule: Q04DX003 (ip), vehicle: distilled water + Tween-80 103 % of control | endpoint: mean survival time, dose: 50.0 mg/kg/injection, schedule: Q04DX003 (ip), vehicle: distilled water + Tween-80 101 % of control | endpoint: mean survival time, dose: 100.0 mg/kg/injection, schedule: Q04DX003 (ip), vehicle: distilled water + Tween-80 101 % of control | endpoint: mean survival time, dose: 200.0 mg/kg/injection, schedule: Q04DX003 (ip), vehicle: distilled water + Tween-80 103 % of control

O=C1CC[C@H](NC(=O)OCc2ccccc2)C(=O)O1
inactive: [2] 88 % of control | [3] 90 % of control | [4] 88 % of control

CC1CCC2[S][Sn]3([NH]C2C1)[NH]C1CC(C)CCC1[S]3 (configuration not stated)
inactive: [5] 106 % of control | endpoint: mean survival time, dose: 200.0 mg/kg/injection, schedule: Q04DX002 (ip), vehicle: saline with Tween-80 111 % of control

Cc1ccc2c(c1)NP(=S)(c1ccccc1)N2 (configuration not stated)
inactive: [2] 91 % of control | [3] 86 % of control | [4] 94 % of control

Cc1c([N+](=O)[O-])cc(C(C)(C)C)c(OS(C)(=O)=O)c1[N+](=O)[O-]
inactive: [5] 105 % of control

O=P(OCCCOCc1ccccc1)(N(CCCl)CCCl)N1CC1 (configuration not stated)
inactive: endpoint: mean survival time, dose: 25.0 mg/kg/injection, schedule: Q01DX001 (ip), vehicle: other 104 % of control | endpoint: mean survival time, dose: 50.0 mg/kg/injection, schedule: Q01DX001 (ip), vehicle: other 106 % of control | endpoint: mean survival time, dose: 100.0 mg/kg/injection, schedule: Q01DX001 (ip), vehicle: DMSO 98 % of control | endpoint: mean survival time, dose: 100.0 mg/kg/injection, schedule: Q01DX001 (ip), vehicle: other 118 % of control | endpoint: mean survival time, dose: 200.0 mg/kg/injection, schedule: Q01DX001 (ip), vehicle: DMSO 103 % of control | endpoint: mean survival time, dose: 200.0 mg/kg/injection, schedule: Q01DX001 (ip), vehicle: other 101 % of control | endpoint: mean survival time, dose: 400.0 mg/kg/injection, schedule: Q01DX001 (ip), vehicle: DMSO 109 % of control | endpoint: mean survival time, dose: 400.0 mg/kg/injection, schedule: Q01DX001 (ip), vehicle: other 87 % of control

NCCSc1ccccc1
inactive: endpoint: mean survival time, dose: 12.5 mg/kg/injection, schedule: Q01DX009 (ip), vehicle: saline with Tween-80 89 % of control | endpoint: mean survival time, dose: 25.0 mg/kg/injection, schedule: Q01DX009 (ip), vehicle: saline with Tween-80 89 % of control | [1] 90 % of control and 108 % of control | [2] 87 % of control and 98 % of control

CCOC(=O)c1c(NC(C)=O)sc2c1CCCC2
inactive: endpoint: mean survival time, dose: 100.0 mg/kg/injection, schedule: Q04DX003 (ip), vehicle: saline with Tween-80 97 % of control | endpoint: mean survival time, dose: 200.0 mg/kg/injection, schedule: Q04DX003 (ip), vehicle: saline with Tween-80 106 % of control

O=P1(OCCBr)NCCCO1 (configuration not stated)
inactive: endpoint: mean survival time, dose: 62.5 mg/kg/injection, schedule: Q01DX001 (ip), vehicle: water 95 % of control | endpoint: mean survival time, dose: 125.0 mg/kg/injection, schedule: Q01DX001 (ip), vehicle: water 101 % of control | endpoint: mean survival time, dose: 250.0 mg/kg/injection, schedule: Q01DX001 (ip), vehicle: water 104 % of control | endpoint: mean survival time, dose: 500.0 mg/kg/injection, schedule: Q01DX001 (ip), vehicle: water 98 % of control | endpoint: mean survival time, dose: 750.0 mg/kg/injection, schedule: Q01DX001 (ip), vehicle: water 101 % of control

Reference: PubChem BioAssay AID256 (DTP/NCI, 2004)
